Reference: the supplement of paper PMC10883282

Experiments:
Assay in all cases: relative viability vs DMSO control (72 h) (fraction); higher = more viable cells
A204 = system: A204
Procedure, shortened: (§1)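 Sarcoma cell lines were seeded in 384-well plates at densities chosen for 80–90% confluence, then 24 h later given 2.5 µl of serially diluted compound drawn from source plates spanning 10 mM to 0.0002 mM. They were held 72 h at 37 °C, 5% CO2, with 0.1% DMSO vehicle and a 5 µM positive control included. Relative viability was read with ATPLite as percent growth and averaged over up to triplicate wells. Rescaling placed full at 1 and none at 0.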

G401 = system: G401
Procedure, shortened: as §1

HS729 = system: HS729
Procedure, shortened: as §1

KHOS-240S = system: KHOS-240S
Procedure, shortened: as §1

MES-SA = system: MES-SA
Procedure, shortened: as §1

SK-ES-1 = system: SK-ES-1
Procedure, shortened: as §1

SK-LMS-1 = system: SK-LMS-1
Procedure, shortened: as §1

SW1353 = system: SW1353
Procedure, shortened: as §1

SW684 = system: SW684
Procedure, shortened: as §1

SW872 = system: SW872
Procedure, shortened: as §1

SW982 = system: SW982
Procedure, shortened: as §1

SYO-1 = system: SYO-1
Procedure, shortened: as §1

NC(=O)c1cccc2cn(-c3ccc([C@@H]4CCCNC4)cc3)nc12 [Niraparib]
Details	relative viability
A204, 0.00017 µM	1.07
A204, 0.00051 µM	1.09
A204, 0.00152 µM	1.05
A204, 0.00457 µM	1.07
A204, 0.01372 µM	1.05
A204, 0.04115 µM	1.07
A204, 0.1235 µM	1.064
A204, 0.3704 µM	0.998
A204, 1.111 µM	0.964
A204, 3.333 µM	0.885
A204, 10 µM	0.691
G401, 0.00017 µM	0.962
G401, 0.00051 µM	0.988
G401, 0.00152 µM	1.01
G401, 0.00457 µM	0.9908
G401, 0.01372 µM	0.993
G401, 0.04115 µM	1.03
G401, 0.1235 µM	0.967
G401, 0.3704 µM	0.97
G401, 1.111 µM	0.93
G401, 3.333 µM	0.929
G401, 10 µM	0.852
HS729, 0.00017 µM	0.876
HS729, 0.00051 µM	0.894
HS729, 0.00152 µM	0.893
HS729, 0.00457 µM	0.89
HS729, 0.01372 µM	0.886
HS729, 0.04115 µM	0.869
HS729, 0.1235 µM	0.917
HS729, 0.3704 µM	0.868
HS729, 1.111 µM	0.884
HS729, 3.333 µM	0.877
HS729, 10 µM	0.801
KHOS-240S, 0.00017 µM	1.06
KHOS-240S, 0.00051 µM	1.08
KHOS-240S, 0.00152 µM	1.07
KHOS-240S, 0.00457 µM	1.07
KHOS-240S, 0.01372 µM	1.06
KHOS-240S, 0.04115 µM	1.07
KHOS-240S, 0.1235 µM	1.06
KHOS-240S, 0.3704 µM	1.06
KHOS-240S, 1.111 µM	1.03
KHOS-240S, 3.333 µM	1.01
KHOS-240S, 10 µM	0.877
MES-SA, 0.00017 µM	0.9156
MES-SA, 0.00051 µM	0.898
MES-SA, 0.00152 µM	0.868
MES-SA, 0.00457 µM	0.918
MES-SA, 0.01372 µM	0.882
MES-SA, 0.04115 µM	0.893
MES-SA, 0.1235 µM	0.876
MES-SA, 0.3704 µM	0.8654
MES-SA, 1.111 µM	0.824
MES-SA, 3.333 µM	0.774
MES-SA, 10 µM	0.598
SK-ES-1, 0.00017 µM	1.02
SK-ES-1, 0.00051 µM	1.02
SK-ES-1, 0.00152 µM	1.01
SK-ES-1, 0.00457 µM	1.01
SK-ES-1, 0.01372 µM	1.02
SK-ES-1, 0.04115 µM	0.975
SK-ES-1, 0.1235 µM	0.8976
SK-ES-1, 0.3704 µM	0.822
SK-ES-1, 1.111 µM	0.525
SK-ES-1, 3.333 µM	0.311
SK-ES-1, 10 µM	0.0804
SK-LMS-1, 0.00017 µM	1.08
SK-LMS-1, 0.00051 µM	1.12
SK-LMS-1, 0.00152 µM	1.1
SK-LMS-1, 0.00457 µM	1.12
SK-LMS-1, 0.01372 µM	1.12
SK-LMS-1, 0.04115 µM	1.13
SK-LMS-1, 0.1235 µM	1.12
SK-LMS-1, 0.3704 µM	1.1
SK-LMS-1, 1.111 µM	1.09
SK-LMS-1, 3.333 µM	1.03
SK-LMS-1, 10 µM	0.966
SW684, 0.00017 µM	1.14
SW684, 0.00051 µM	1.15
SW684, 0.00152 µM	1.17
SW684, 0.00457 µM	1.13
SW684, 0.01372 µM	1.09
SW684, 0.04115 µM	1.13
SW684, 0.1235 µM	1.14
SW684, 0.3704 µM	1.1
SW684, 1.111 µM	1.13
SW684, 3.333 µM	1.17
SW684, 10 µM	1.09
SW872, 0.00017 µM	1.02
SW872, 0.00051 µM	1.04
SW872, 0.00152 µM	1.03
SW872, 0.00457 µM	1.04
SW872, 0.01372 µM	0.997
SW872, 0.04115 µM	1.01
SW872, 0.1235 µM	1.05
SW872, 0.3704 µM	1.07
SW872, 1.111 µM	1.06
SW872, 3.333 µM	1.07
SW872, 10 µM	1.02
SW982, 0.00017 µM	1.05
SW982, 0.00051 µM	1.04
SW982, 0.00152 µM	1.05
SW982, 0.00457 µM	1.02
SW982, 0.01372 µM	1.06
SW982, 0.04115 µM	1.07
SW982, 0.1235 µM	1.06
SW982, 0.3704 µM	1.01
SW982, 1.111 µM	0.926
SW982, 3.333 µM	0.791
SW982, 10 µM	0.635
SW1353, 0.00017 µM	0.976
SW1353, 0.00051 µM	0.981
SW1353, 0.00152 µM	0.969
SW1353, 0.00457 µM	0.958
SW1353, 0.01372 µM	0.927
SW1353, 0.04115 µM	0.965
SW1353, 0.1235 µM	0.956
SW1353, 0.3704 µM	0.964
SW1353, 1.111 µM	0.933
SW1353, 3.333 µM	0.942
SW1353, 10 µM	0.904
SYO-1, 0.00017 µM	0.951
SYO-1, 0.00051 µM	0.965
SYO-1, 0.00152 µM	0.95
SYO-1, 0.00457 µM	0.946
SYO-1, 0.01372 µM	0.927
SYO-1, 0.04115 µM	0.861
SYO-1, 0.1235 µM	0.832
SYO-1, 0.3704 µM	0.765
SYO-1, 1.111 µM	0.664
SYO-1, 3.333 µM	0.522
SYO-1, 10 µM	0.29
